Assay results: ChEMBL document CHEMBL5512691, “Synthetically Feasible De Novo Molecular Design of Leads Based on a Reinforcement Learning Model: AI-Assisted Discovery of an Anti-IBD Lead Targeting CXCR4” (J Med Chem, 2024)
Calls of active or inactive are those of the source. The rule behind the calls is not given here.

Key:
[1] = molecular target: T1, C-X-C chemokine receptor type 4 (Homo sapiens, UniProt P61073); test: Competitive binding affinity to CXCR4 (unknown origin) assessed as inhibition of CXCR4 to TN14003 interaction at 10 nM preincubated for 10 mins followed by compound washout and subsequent TN14003 addition for 30 mins prior to incubation under dark condition for 30 mins by DAPI staining based laser scanning confocal microscopic analysis relative to control; design: scale not given: the % may be the effect or the level left
[2] = molecular target: T1, C-X-C chemokine receptor type 4; test: Competitive binding affinity to CXCR4 (unknown origin) assessed as inhibition of CXCR4 to TN14003 interaction preincubated for 10 mins followed by compound washout and subsequent TN14003 addition for 30 mins prior to incubation under dark condition for 30 mins by DAPI staining based laser scanning confocal microscopic analysis
RAW264.7 [3] = test: Inhibition of CXCL-12 induced chemotaxis in mouse RAW264.7 cells incubated for 22 hrs by transwell assay; type: functional
RAW264.7 [4] = test: Inhibition of CXCL-12 induced chemotaxis in mouse RAW264.7 cells at 10 nM incubated for 22 hrs by crystal violet staining based transwell assay; type: functional, cell-based
Mus musculus [5] = test: Anti-inflammatory activity in DSS induced C57BL/6 mouse model of colitis assessed as alleviation in body weight loss at 25 mg/kg, IG administered twice daily for 2 weeks; type: functional, organism-based
Mus musculus [6] = test: Anti-inflammatory activity in DSS induced C57BL/6 mouse model of colitis assessed as reduction in DAI score at 25 mg/kg, IG administered twice daily for 2 weeks (reference value: 3); type: functional
Mus musculus [7] = test: Anti-inflammatory activity in DSS induced C57BL/6 mouse model of colitis assessed as inhibition rate at 25 mg/kg, IG administered twice daily for 2 weeks; type: functional; design: scale not given: the % may be the effect or the level left
Mus musculus [8] = test: Anti-inflammatory activity in DSS induced C57BL/6 mouse model of colitis assessed as alleviation in colon edema at 25 mg/kg, IG administered twice daily for 2 weeks; type: functional, organism-based
Mus musculus [9] = test: Anti-inflammatory activity in DSS induced C57BL/6 mouse model of colitis assessed as increase in colon length at 25 mg/kg, IG administered twice daily for 2 weeks; type: functional, organism-based
Mus musculus [10] = test: Anti-inflammatory activity in DSS induced C57BL/6 mouse model of colitis assessed as decrease in number of bleeding points at 25 mg/kg, IG administered twice daily for 2 weeks; type: functional, organism-based
Mus musculus [11] = test: Anti-inflammatory activity in DSS induced C57BL/6 mouse model of colitis assessed as decrease in number of bleeding area at 25 mg/kg, IG administered twice daily for 2 weeks; type: functional, organism-based
Mus musculus [12] = test: Anti-inflammatory activity in DSS induced C57BL/6 mouse model of colitis assessed as decrease in colon MPO level at 25 mg/kg, IG administered twice daily for 2 weeks by microplate reader assay; type: functional, organism-based
Mus musculus [13] = test: Anti-inflammatory activity in DSS induced C57BL/6 mouse model of colitis assessed as decrease in IL-1beta expression at 25 mg/kg, IG administered twice daily for 2 weeks by bioluminescence microscopy; type: functional, organism-based
Mus musculus [14] = test: Anti-inflammatory activity in DSS induced C57BL/6 mouse model of colitis assessed as decrease in IL-6 expression at 25 mg/kg, IG administered twice daily for 2 weeks by bioluminescence microscopy; type: functional, organism-based
Mus musculus [15] = test: Anti-inflammatory activity in DSS induced C57BL/6 mouse model of colitis assessed as decrease in TNF-alpha expression at 25 mg/kg, IG administered twice daily for 2 weeks by bioluminescence microscopy; type: functional, organism-based
[16] = Half-life in Sprague-Dawley rat at 2 mg/kg, iv measured upto 12 hrs by LC-MS/MS analysis; type: ADME, organism-based; conditions: in vivo
[17] = Tmax in Sprague-Dawley rat at 2 mg/kg, iv measured upto 12 hrs by LC-MS/MS analysis; type: ADME, organism-based; conditions: in vivo
[18] = Cmax in Sprague-Dawley rat at 2 mg/kg, iv measured upto 12 hrs by LC-MS/MS analysis; type: ADME, organism-based; conditions: in vivo
[19] = AUC(0 to t) in Sprague-Dawley rat at 2 mg/kg, iv measured upto 12 hrs by LC-MS/MS analysis; type: ADME, organism-based; conditions: in vivo
[20] = AUC(0 to infinity) in Sprague-Dawley rat at 2 mg/kg, iv measured upto 12 hrs by LC-MS/MS analysis; type: ADME, organism-based; conditions: in vivo
[21] = Clearance in Sprague-Dawley rat at 2 mg/kg, iv measured upto 12 hrs by LC-MS/MS analysis; type: ADME, organism-based; conditions: in vivo
[22] = MRT in Sprague-Dawley rat at 2 mg/kg, iv measured upto 12 hrs by LC-MS/MS analysis; type: ADME, organism-based; conditions: in vivo
[23] = Bioavailability in Sprague-Dawley rat at 20 mg/kg, IG measured upto 12 hrs by LC-MS/MS analysis; type: ADME, organism-based; conditions: in vivo, po
[24] = Half-life in Sprague-Dawley rat at 20 mg/kg, IG measured upto 12 hrs by LC-MS/MS analysis; type: ADME, organism-based; conditions: in vivo, po
[25] = Tmax in Sprague-Dawley rat at 20 mg/kg, IG measured upto 12 hrs by LC-MS/MS analysis; type: ADME, organism-based; conditions: in vivo, po
[26] = Cmax in Sprague-Dawley rat at 20 mg/kg, IG measured upto 12 hrs by LC-MS/MS analysis; type: ADME, organism-based; conditions: in vivo, po
[27] = AUC(0 to t) in Sprague-Dawley rat at 20 mg/kg, IG measured upto 12 hrs by LC-MS/MS analysis; type: ADME, organism-based; conditions: in vivo, po
[28] = AUC(0 to infinity) in Sprague-Dawley rat at 20 mg/kg, IG measured upto 12 hrs by LC-MS/MS analysis; type: ADME, organism-based; conditions: in vivo, po
[29] = Clearance in Sprague-Dawley rat at 20 mg/kg, IG measured upto 12 hrs by LC-MS/MS analysis; type: ADME, organism-based; conditions: in vivo, po
[30] = MRT in Sprague-Dawley rat at 20 mg/kg, IG measured upto 12 hrs by LC-MS/MS analysis; type: ADME, organism-based; conditions: in vivo, po
Mus musculus [31] = test: Anti-inflammatory activity in DSS induced C57BL/6 mouse model of colitis assessed as decrease in inflammatory track infiltration at 25 mg/kg, IG administered twice daily for 2 weeks by bioluminescence microscopy; type: functional, organism-based
Mus musculus [32] = test: Anti-inflammatory activity in DSS induced C57BL/6 mouse model of colitis assessed as decrease in intestinal track inflammation at 25 mg/kg, IG administered twice daily for 2 weeks by bioluminescence microscopy; type: functional, organism-based
Mus musculus [33] = test: Anti-inflammatory activity in DSS induced C57BL/6 mouse model of colitis assessed as decrease in thickness of colon mucosa at 25 mg/kg, IG administered twice daily for 2 weeks by bioluminescence microscopy; type: functional, organism-based
Mus musculus [34] = test: Anti-inflammatory activity in DSS induced C57BL/6 mouse model of colitis assessed as decrease in inflammatory cell infiltration at 25 mg/kg, IG administered twice daily for 2 weeks by bioluminescence microscopy; type: functional, organism-based
Mus musculus [35] = test: Anti-inflammatory activity in DSS induced C57BL/6 mouse model of colitis assessed as restoration of structural integrity of epithelium at 25 mg/kg, IG administered twice daily for 2 weeks by bioluminescence microscopy; type: functional, organism-based
Mus musculus [36] = test: Anti-inflammatory activity in DSS induced C57BL/6 mouse model of colitis assessed as restoration of number of goblet cells at 25 mg/kg, IG administered twice daily for 2 weeks by bioluminescence microscopy; type: functional, organism-based
Mus musculus [37] = test: Anti-inflammatory activity in DSS induced C57BL/6 mouse model of colitis assessed as restoration of integrity of glands at 25 mg/kg, IG administered twice daily for 2 weeks by bioluminescence microscopy; type: functional, organism-based
[38] = Stability in human plasma assessed as compound remaining measured upto 120 mins by LC-MS analysis; type: ADME, cell-free; conditions: read-out: Stability
[39] = Stability in human plasma assessed as half life measured upto 120 mins by LC-MS analysis; type: ADME, cell-free
[40] = Stability in human liver microsomes assessed as compound remaining measured upto 45 mins in presence of NADPH by LC-MS analysis; type: ADME, Microsome; conditions: read-out: Stability
[41] = Stability in human liver microsomes assessed as half life measured upto 45 mins in presence of NADPH by LC-MS analysis; type: ADME, Microsome
[42] = Volume of distribution in Sprague-Dawley rat at 2 mg/kg, IV measured upto 12 hrs by LC-MS/MS analysis; type: ADME, organism-based; conditions: in vivo
[43] = Volume of distribution in Sprague-Dawley rat at 20 mg/kg, IG measured upto 12 hrs by LC-MS/MS analysis; type: ADME, organism-based; conditions: in vivo, po

T1 sequence (P61073 whole entry): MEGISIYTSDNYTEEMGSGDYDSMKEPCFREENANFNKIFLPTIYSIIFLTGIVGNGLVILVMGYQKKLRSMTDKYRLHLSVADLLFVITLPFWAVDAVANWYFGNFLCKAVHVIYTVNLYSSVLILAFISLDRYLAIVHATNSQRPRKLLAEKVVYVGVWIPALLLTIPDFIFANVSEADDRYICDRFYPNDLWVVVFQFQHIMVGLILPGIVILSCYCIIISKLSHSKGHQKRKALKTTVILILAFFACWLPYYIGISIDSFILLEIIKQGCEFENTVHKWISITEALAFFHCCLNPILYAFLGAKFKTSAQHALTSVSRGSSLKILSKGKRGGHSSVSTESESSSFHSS

SMILES: O=C(NC1CCN(Cc2cccnc2)CC1)c1cnc2ccccc2c1
- Activity [1]: 67.1%
- IC50 [2]: 5.7 nM
- inhibition (INH) (RAW264.7 [3]): 75.63%
- inhibition (RAW264.7 [4]): Active
- Activity (Mus musculus [5]): Active
- Activity (Mus musculus [6]): 2
- Activity (Mus musculus [7]): 33.3%
- Activity (Mus musculus [8]): Active
- Activity (Mus musculus [9]): Active
- Activity (Mus musculus [10]): Active
- Activity (Mus musculus [11]): Active
- Activity (Mus musculus [12]): Active
- Activity (Mus musculus [13]): Active
- Activity (Mus musculus [14]): Active
- Activity (Mus musculus [15]): Active

SMILES: Cc1c(C)c2ccc(OCc3ccc(F)c(F)c3)cc2oc1=O
- Activity [1]: 51.9%

SMILES: O=C(NC1CCN(Cc2ccccc2)CC1)c1ccc(Cl)cc1Cl
- Activity [1]: 61.2%

SMILES: O=C(c1ccco1)N1CCN(C2CCN(c3ccccc3)CC2)CC1
- Activity [1]: 78.9%
- IC50 [2]: 3.2 nM
- half-life [16]: 48.6 min
- Tmax [17]: 4.8 min
- Cmax [18]: 351 ng/mL
- AUC(0-t) at 12 h [19]: 330 ng·h/mL
- AUC(0-inf) [20]: 340 ng·h/mL
- clearance [21]: 99.4 mL/min/kg
- MRT [22]: 1.03 h
- bioavailability [23]: 91.1%
- half-life [24]: 103 min
- Tmax [25]: 15 min
- Cmax [26]: 1440 ng/mL
- AUC(0-t) at 12 h [27]: 3010 ng·h/mL
- AUC(0-inf) [28]: 3070 ng·h/mL
- CL/F [29]: 109 mL/min/kg
- MRT [30]: 2.62 h
- inhibition (INH) (RAW264.7 [3]): 79.19%
- inhibition (RAW264.7 [4]): Active
- Activity (Mus musculus [5]): Active
- Activity (Mus musculus [6]): 1.4
- Activity (Mus musculus [7]): 53.3%
- Activity (Mus musculus [8]): Active
- Activity (Mus musculus [9]): Active
- Activity (Mus musculus [10]): Active
- Activity (Mus musculus [11]): Active
- Activity (Mus musculus [12]): Active
- Activity (Mus musculus [31]): Active
- Activity (Mus musculus [32]): Active
- Activity (Mus musculus [33]): Active
- Activity (Mus musculus [34]): Active
- Activity (Mus musculus [35]): Active
- Activity (Mus musculus [36]): Active
- Activity (Mus musculus [37]): Active
- Activity (Mus musculus [13]): Active
- Activity (Mus musculus [14]): Active
- Activity (Mus musculus [15]): Active
- remaining at 2 h [38]: 87%
- half-life [39]: > 2 h
- remaining at 0.75 h [40]: 62%
- half-life [41]: 67.5 min
- Vd [42]: 6.04 L/kg
- Vd [43]: 16161.66 mL/kg

SMILES: O=C(c1cnc2ccccc2c1)N1CCC(N2CCOCC2)CC1
- Activity [1]: 53.6%

SMILES: Cc1ccc(CN2CCN(c3nc(N)c4sccc4n3)CC2)cc1
- Activity [1]: 59.1%

SMILES: O=C(NCc1ccccc1-n1cccn1)c1cnc2ccccc2n1
- Activity [1]: 11.1%

SMILES: O=S(=O)(c1ccc(F)c(F)c1)N1CCN(c2ccc3ccccc3n2)CC1
- Activity [1]: 64.8%

SMILES: O=S(=O)(NCc1ccc(-c2ccccc2)cc1)c1cc(F)c(F)cc1F
- Activity [1]: 54.9%

SMILES: CC(=O)N1CCC(N(Cc2cccc(C)c2O)C(=O)c2cccc3ccccc23)CC1
- Activity [1]: 59.2%

SMILES: O=C(NO)c1ccc(NC(=O)c2ccccc2C(F)(F)F)cc1
- Activity [1]: 55.4%

SMILES: CC1CN(C(=O)c2ccccc2C(=O)Nc2ccccc2)CCN1C(=O)c1ccc(F)c(F)c1 (configuration not stated)
- Activity [1]: 62.7%

SMILES: c1cc(CN2CCCNCCNCCCNCC2)ccc1CN1CCCNCCNCCCNCC1 [PLERIXAFOR]
- Activity [1]: 62.9%
- Activity (Mus musculus [6]): 1.8
- Activity (Mus musculus [7]): 40%
- Activity (Mus musculus [13]): Active
- Activity (Mus musculus [14]): Active
- Activity (Mus musculus [15]): Active

SMILES: O=C(c1cnc2ccccc2c1)N1CCN(c2ccccc2F)CC1
- Activity [1]: 52.2%

SMILES: Cc1ccc(C)c(CC(=O)N2CCN(c3ccccc3)CC2)c1
- Activity [1]: 59.5%

SMILES: Cc1cc(O)cc(C(=O)N2CCN(c3ccc(F)cc3)CC2)c1
- Activity [1]: 64.3%

SMILES: COc1ccc(C(=O)N[C@@H]2CCc3[nH]c4ccccc4c3C2)cc1
- Activity [1]: 38.3%

SMILES: O=C(c1cc2ccccc2[nH]1)N1CCN(c2ccc(Cl)cn2)CC1
- Activity [1]: 40.2%

SMILES: Cc1cccc(NC(=O)N2CCN(c3nccc4ccccc34)CC2)c1
- Activity [1]: 33.7%

SMILES: O=C(c1cnc2ccccc2c1)N1CCC(N2CCCC2)CC1
- Activity [1]: 64.5%

SMILES: Fc1ccc(F)c(NCCN2CCN(c3nccc4ccccc34)CC2)c1
- Activity [1]: 58.6%
